Laboratory results published in article PMC9954146, “Anti-Leukaemic Activity of Rilpivirine Is Mediated by Aurora A Kinase Inhibition” (Cancers, 2023).

Key:
Test in all cases: Kinase panel
Format in all cases: biochemical
SRMS(h) = biological target: T1, SRMS(h) (Homo sapiens, UniProt Q9H3Y6); details: read-out: % Residual Activity
T1 construct: purchased Eurofins (KinaseProfiler)
In short: (§1)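 Cheng–Prusoff conversion of IC50 to Ki; IC50s from radioisotope-based assays at Km(ATP). Kinome-wide rilpivirine profiling.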

cKit(h) = biological target: T2, cKit(h) (Homo sapiens, UniProt P10721); details: read-out: % Residual Activity
T2 construct: purchased Eurofins (KinaseProfiler)
T2 sequence (P10721 26-976): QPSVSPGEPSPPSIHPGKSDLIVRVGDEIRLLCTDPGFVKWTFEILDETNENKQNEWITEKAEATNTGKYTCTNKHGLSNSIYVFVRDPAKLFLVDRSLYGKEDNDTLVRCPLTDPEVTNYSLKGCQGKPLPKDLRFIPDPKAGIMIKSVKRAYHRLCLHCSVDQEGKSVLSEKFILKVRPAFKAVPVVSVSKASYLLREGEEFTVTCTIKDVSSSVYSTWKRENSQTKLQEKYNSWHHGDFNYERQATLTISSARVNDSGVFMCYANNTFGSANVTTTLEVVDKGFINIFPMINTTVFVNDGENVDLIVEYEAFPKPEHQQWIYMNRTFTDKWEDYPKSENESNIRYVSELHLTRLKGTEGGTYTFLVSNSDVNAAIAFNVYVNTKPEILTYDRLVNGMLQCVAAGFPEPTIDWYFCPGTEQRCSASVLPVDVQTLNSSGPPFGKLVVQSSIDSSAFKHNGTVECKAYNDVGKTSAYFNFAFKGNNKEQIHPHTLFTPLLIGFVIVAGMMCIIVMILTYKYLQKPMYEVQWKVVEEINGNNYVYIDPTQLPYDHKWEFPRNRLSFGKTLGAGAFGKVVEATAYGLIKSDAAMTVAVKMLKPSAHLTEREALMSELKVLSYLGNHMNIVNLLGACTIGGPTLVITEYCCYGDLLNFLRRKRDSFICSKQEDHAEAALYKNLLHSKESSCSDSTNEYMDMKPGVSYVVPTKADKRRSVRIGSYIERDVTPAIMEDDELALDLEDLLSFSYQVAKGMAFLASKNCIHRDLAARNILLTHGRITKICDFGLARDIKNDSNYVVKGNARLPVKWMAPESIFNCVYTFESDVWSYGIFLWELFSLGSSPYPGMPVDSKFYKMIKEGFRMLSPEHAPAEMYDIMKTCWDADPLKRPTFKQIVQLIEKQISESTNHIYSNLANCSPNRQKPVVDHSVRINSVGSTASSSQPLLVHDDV
In short: as §1

Flt4(h) = biological target: T3, Flt4(h) (Homo sapiens, UniProt P35916); details: read-out: % Residual Activity
T3 construct: purchased Eurofins (KinaseProfiler)
In short: as §1

TTK(h) = biological target: T4, TTK(h) (Homo sapiens, UniProt P33981); details: read-out: % Residual Activity
T4 construct: purchased Eurofins (KinaseProfiler)
T4 sequence (P33981 whole entry): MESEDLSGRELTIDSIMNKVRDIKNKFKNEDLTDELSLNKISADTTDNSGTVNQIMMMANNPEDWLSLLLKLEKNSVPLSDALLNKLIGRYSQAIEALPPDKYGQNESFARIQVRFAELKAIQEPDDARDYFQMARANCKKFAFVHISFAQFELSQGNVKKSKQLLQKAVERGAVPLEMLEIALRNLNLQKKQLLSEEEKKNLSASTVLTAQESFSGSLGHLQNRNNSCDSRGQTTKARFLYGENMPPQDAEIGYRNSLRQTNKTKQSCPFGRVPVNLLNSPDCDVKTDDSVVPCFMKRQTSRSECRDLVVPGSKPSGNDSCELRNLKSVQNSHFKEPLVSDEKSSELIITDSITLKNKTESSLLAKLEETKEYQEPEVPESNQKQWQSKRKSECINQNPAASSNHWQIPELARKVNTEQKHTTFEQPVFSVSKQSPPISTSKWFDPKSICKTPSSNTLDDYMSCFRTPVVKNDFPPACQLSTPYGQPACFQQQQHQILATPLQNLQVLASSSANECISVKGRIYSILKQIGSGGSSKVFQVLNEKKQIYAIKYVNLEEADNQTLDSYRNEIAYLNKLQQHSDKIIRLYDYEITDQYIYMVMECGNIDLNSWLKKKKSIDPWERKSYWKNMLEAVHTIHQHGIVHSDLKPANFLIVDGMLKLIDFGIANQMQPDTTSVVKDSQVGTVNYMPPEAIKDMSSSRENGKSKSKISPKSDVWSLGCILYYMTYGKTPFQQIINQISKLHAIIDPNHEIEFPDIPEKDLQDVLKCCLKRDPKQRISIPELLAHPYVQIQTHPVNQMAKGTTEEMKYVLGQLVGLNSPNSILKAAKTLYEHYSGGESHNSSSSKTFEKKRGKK
In short: as §1

MARK4(h) = biological target: T5, MARK4(h) (Homo sapiens, UniProt Q96L34); details: read-out: % Residual Activity
T5 construct: purchased Eurofins (KinaseProfiler)
In short: as §1

MRCKα(h) = biological target: T6, MRCKα(h) (Homo sapiens, UniProt Q5VT25); details: read-out: % Residual Activity
T6 construct: purchased Eurofins (KinaseProfiler)
In short: as §1

STK32A(h) = biological target: T7, STK32A(h) (Homo sapiens, UniProt Q8WU08); details: read-out: % Residual Activity
T7 construct: purchased Eurofins (KinaseProfiler)
In short: as §1

CK2α2(h) = biological target: T8, CK2α2(h) (Homo sapiens, UniProt P19784); details: read-out: % Residual Activity
T8 construct: purchased Eurofins (KinaseProfiler)
In short: as §1

[1] = biological target: PI3 Kinase (p110a(H1047R)/p85a)(m) (Mus musculus, UniProt P42337, H1047R); details: read-out: % Residual Activity
In short: as §1

MST1(h) = biological target: T9, MST1(h) (Homo sapiens, UniProt Q13043); details: read-out: % Residual Activity
T9 construct: purchased Eurofins (KinaseProfiler)
In short: as §1

DCAMKL3(h) = biological target: T10, DCAMKL3(h) (Homo sapiens, UniProt Q9C098); details: read-out: % Residual Activity
T10 construct: purchased Eurofins (KinaseProfiler)
In short: as §1

Rsk3(h) = biological target: T11, Rsk3(h) (Homo sapiens, UniProt Q15349); details: read-out: % Residual Activity
T11 construct: purchased Eurofins (KinaseProfiler)
In short: as §1

[2] = biological target: T12, PI3 Kinase (p110a/p65a)(m) (Mus musculus, UniProt P42337); details: read-out: % Residual Activity
T12 construct: purchased Eurofins (KinaseProfiler)
In short: as §1

MELK(h) = biological target: T13, MELK(h) (Homo sapiens, UniProt Q14680); details: read-out: % Residual Activity
T13 construct: purchased Eurofins (KinaseProfiler)
In short: as §1

CDKL1(h) = biological target: T14, CDKL1(h) (Homo sapiens, UniProt Q00532); details: read-out: % Residual Activity
T14 construct: purchased Eurofins (KinaseProfiler)
In short: as §1

DYRK1B(h) = biological target: T15, DYRK1B(h) (Homo sapiens, UniProt Q9Y463); details: read-out: % Residual Activity
T15 construct: purchased Eurofins (KinaseProfiler)
T15 sequence (Q9Y463 whole entry): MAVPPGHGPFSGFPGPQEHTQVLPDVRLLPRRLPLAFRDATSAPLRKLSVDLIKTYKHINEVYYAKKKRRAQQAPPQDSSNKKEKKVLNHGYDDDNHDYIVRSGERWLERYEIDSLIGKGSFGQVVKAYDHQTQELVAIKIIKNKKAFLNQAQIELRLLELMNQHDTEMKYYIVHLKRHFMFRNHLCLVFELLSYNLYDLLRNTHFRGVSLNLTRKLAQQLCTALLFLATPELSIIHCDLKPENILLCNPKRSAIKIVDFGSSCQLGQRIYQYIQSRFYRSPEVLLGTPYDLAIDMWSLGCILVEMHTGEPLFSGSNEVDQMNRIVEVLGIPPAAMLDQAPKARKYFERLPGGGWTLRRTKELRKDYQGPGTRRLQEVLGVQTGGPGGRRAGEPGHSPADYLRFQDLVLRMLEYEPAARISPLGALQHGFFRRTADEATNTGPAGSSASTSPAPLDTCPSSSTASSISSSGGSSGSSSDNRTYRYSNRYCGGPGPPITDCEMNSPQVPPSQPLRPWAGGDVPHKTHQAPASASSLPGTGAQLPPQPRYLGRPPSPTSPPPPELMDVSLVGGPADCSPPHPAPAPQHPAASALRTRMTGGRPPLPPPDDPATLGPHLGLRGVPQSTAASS
In short: as §1

MSK1(h) = biological target: T16, MSK1(h) (Homo sapiens, UniProt O75582); details: read-out: % Residual Activity
T16 construct: purchased Eurofins (KinaseProfiler)
In short: as §1

DYRK2(h) = biological target: T17, DYRK2(h) (Homo sapiens, UniProt Q92630); details: read-out: % Residual Activity
T17 construct: purchased Eurofins (KinaseProfiler)
T17 sequence (Q92630 whole entry): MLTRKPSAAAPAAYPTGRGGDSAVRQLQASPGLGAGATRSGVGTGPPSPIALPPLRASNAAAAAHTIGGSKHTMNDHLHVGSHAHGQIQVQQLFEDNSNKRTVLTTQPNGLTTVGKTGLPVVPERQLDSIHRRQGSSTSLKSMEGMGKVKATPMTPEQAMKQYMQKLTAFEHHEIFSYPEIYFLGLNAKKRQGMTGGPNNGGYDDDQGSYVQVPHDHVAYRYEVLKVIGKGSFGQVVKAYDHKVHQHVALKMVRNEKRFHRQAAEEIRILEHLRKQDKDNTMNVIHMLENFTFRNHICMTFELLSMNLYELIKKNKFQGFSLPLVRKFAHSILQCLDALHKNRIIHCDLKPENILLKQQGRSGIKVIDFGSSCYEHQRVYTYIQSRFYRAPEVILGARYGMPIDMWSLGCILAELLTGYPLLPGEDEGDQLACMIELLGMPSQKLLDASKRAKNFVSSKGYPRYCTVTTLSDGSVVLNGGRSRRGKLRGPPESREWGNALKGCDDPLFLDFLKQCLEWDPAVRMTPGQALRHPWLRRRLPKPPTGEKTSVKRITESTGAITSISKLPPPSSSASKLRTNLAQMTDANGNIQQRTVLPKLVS
In short: as §1

JNK2α2(h) = biological target: T18, JNK2α2(h) (Homo sapiens, UniProt P45984); details: read-out: % Residual Activity
T18 construct: purchased Eurofins (KinaseProfiler)
T18 sequence (P45984 whole entry): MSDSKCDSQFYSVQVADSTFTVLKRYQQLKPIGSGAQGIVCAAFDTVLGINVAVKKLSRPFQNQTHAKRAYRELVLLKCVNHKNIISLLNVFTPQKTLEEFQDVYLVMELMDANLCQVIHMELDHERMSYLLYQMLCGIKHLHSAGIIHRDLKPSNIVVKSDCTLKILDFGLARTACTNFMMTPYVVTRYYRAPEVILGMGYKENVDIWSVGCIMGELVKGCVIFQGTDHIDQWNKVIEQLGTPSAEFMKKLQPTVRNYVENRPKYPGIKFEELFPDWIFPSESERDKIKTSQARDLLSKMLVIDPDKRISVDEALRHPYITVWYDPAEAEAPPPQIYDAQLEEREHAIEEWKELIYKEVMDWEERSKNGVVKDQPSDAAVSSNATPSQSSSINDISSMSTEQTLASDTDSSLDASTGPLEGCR
In short: as §1

NDR2(h) = biological target: T19, NDR2(h) (Homo sapiens, UniProt Q9Y2H1); details: read-out: % Residual Activity
T19 construct: purchased Eurofins (KinaseProfiler)
In short: as §1

RIPK2(h) = biological target: T20, RIPK2(h) (Homo sapiens, UniProt O43353); details: read-out: % Residual Activity
T20 construct: purchased Eurofins (KinaseProfiler)
In short: as §1

Abl (Q252H) (h) = biological target: T21, Abl (Q252H) (h) (Homo sapiens, UniProt P00519, Q252H); details: read-out: % Residual Activity
T21 construct: purchased Eurofins (KinaseProfiler)
In short: as §1

CK1ε(h) = biological target: T22, CK1ε(h) (Homo sapiens, UniProt P49674); details: read-out: % Residual Activity
T22 construct: purchased Eurofins (KinaseProfiler)
In short: as §1

SLK(h) = biological target: T23, SLK(h) (Homo sapiens, UniProt Q9H2G2); details: read-out: % Residual Activity
T23 construct: purchased Eurofins (KinaseProfiler)
In short: as §1

PKCζ(h) = biological target: T24, PKCζ(h) (Homo sapiens, UniProt Q05513); details: read-out: % Residual Activity
T24 construct: purchased Eurofins (KinaseProfiler)
In short: as §1

Fes(h) = biological target: T25, Fes(h) (Homo sapiens, UniProt P07332); details: read-out: % Residual Activity
T25 construct: purchased Eurofins (KinaseProfiler)
In short: as §1

GRK2(h) = biological target: T26, GRK2(h) (Homo sapiens, UniProt P25098); details: read-out: % Residual Activity
T26 construct: purchased Eurofins (KinaseProfiler)
In short: as §1

p70S6K(h) = biological target: T27, p70S6K(h) (Homo sapiens, UniProt P23443); details: read-out: % Residual Activity
T27 construct: purchased Eurofins (KinaseProfiler)
In short: as §1

B-Raf(h) = biological target: T28, B-Raf(h) (Homo sapiens, UniProt P15056); details: read-out: % Residual Activity
T28 construct: purchased Eurofins (KinaseProfiler)
In short: as §1

Lyn(h) = biological target: T29, Lyn(h) (Homo sapiens, UniProt P07948)
T29 construct: purchased Eurofins (KinaseProfiler)
T29 sequence (P07948 whole entry): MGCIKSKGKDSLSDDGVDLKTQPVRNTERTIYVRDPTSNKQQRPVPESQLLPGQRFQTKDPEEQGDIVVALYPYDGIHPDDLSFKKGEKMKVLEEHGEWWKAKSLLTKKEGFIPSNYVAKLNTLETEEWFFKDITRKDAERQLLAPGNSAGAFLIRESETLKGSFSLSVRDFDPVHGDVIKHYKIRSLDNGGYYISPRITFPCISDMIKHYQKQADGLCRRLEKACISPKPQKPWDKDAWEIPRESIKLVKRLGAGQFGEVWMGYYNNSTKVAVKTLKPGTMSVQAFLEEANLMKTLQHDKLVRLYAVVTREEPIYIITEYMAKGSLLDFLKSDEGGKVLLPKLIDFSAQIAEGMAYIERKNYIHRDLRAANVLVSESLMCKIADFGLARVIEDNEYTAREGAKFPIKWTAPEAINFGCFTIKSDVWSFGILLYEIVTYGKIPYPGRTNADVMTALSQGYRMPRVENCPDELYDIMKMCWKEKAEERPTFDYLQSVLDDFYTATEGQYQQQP
In short: as §1

VRK1(h) = biological target: T30, VRK1(h) (Homo sapiens, UniProt Q99986); details: read-out: % Residual Activity
T30 construct: purchased Eurofins (KinaseProfiler)
In short: as §1

PDK1(h) = biological target: T31, PDK1(h) (Homo sapiens, UniProt O15530); details: read-out: % Residual Activity
T31 construct: purchased Eurofins (KinaseProfiler)
In short: as §1

STK25(h) = biological target: T32, STK25(h) (Homo sapiens, UniProt O00506); details: read-out: % Residual Activity
T32 construct: purchased Eurofins (KinaseProfiler)
In short: as §1

MARK1(h) = biological target: T33, MARK1(h) (Homo sapiens, UniProt Q9P0L2); details: read-out: % Residual Activity
T33 construct: purchased Eurofins (KinaseProfiler)
In short: as §1

PKCμ(h) = biological target: T34, PKCμ(h) (Homo sapiens, UniProt Q15139); details: read-out: % Residual Activity
T34 construct: purchased Eurofins (KinaseProfiler)
T34 sequence (Q15139 whole entry): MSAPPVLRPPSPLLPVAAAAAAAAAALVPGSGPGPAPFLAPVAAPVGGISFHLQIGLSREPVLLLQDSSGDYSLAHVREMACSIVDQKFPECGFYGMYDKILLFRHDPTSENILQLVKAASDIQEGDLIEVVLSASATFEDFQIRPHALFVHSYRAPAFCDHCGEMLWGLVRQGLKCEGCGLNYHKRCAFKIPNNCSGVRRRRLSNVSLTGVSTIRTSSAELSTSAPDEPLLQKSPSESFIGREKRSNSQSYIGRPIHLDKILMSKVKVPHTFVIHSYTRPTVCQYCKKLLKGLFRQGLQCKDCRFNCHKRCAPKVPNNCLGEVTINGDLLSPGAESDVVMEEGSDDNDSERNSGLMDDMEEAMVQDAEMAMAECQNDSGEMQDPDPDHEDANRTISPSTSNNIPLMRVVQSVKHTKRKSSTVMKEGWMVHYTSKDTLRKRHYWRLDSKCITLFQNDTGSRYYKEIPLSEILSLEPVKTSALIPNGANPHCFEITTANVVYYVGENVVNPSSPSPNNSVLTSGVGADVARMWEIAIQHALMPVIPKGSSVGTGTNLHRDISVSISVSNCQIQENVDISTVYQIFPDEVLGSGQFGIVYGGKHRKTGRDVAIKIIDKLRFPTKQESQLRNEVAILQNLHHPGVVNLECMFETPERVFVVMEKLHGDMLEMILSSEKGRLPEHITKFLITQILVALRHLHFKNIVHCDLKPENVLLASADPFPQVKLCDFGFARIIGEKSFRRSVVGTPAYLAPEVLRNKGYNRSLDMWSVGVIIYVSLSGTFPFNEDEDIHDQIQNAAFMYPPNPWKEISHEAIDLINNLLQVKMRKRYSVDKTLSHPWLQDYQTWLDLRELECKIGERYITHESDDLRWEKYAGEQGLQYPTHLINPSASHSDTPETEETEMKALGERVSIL
In short: as §1

TTBK2(h) = biological target: T35, TTBK2(h) (Homo sapiens, UniProt Q6IQ55); details: read-out: % Residual Activity
T35 construct: purchased Eurofins (KinaseProfiler)
In short: as §1

DMPK(h) = biological target: T36, DMPK(h) (Homo sapiens, UniProt Q09013); details: read-out: % Residual Activity
T36 construct: purchased Eurofins (KinaseProfiler)
In short: as §1

ChaK1(h) = biological target: T37, ChaK1(h) (Homo sapiens, UniProt Q96QT4); details: read-out: % Residual Activity
T37 construct: purchased Eurofins (KinaseProfiler)
In short: as §1

`Cc1cc(/C=C/C#N)cc(C)c1Nc1ccnc(Nc2ccc(C#N)cc2)n1` [rilpivirine, (E)-4-((4-((4-(2-cyanoethenyl)-2,6-dimethylphenyl)amino)pyrimidin-2-yl)amino)benzonitrile] was tested, and the remaining activity at 1 µM (SRMS(h)) was 55%, the remaining activity at 1 µM (cKit(h)) was 99% and the remaining activity at 1 µM (Flt4(h)) was 101%. The remaining activity at 1 µM (TTK(h)) was 71%, the remaining activity at 1 µM (MARK4(h)) was 88% and the remaining activity at 1 µM (MRCKα(h)) was 86%. For the same molecule, the remaining activity at 1 µM (STK32A(h)) was 89%, the remaining activity at 1 µM (CK2α2(h)) was 104% and the remaining activity at 1 µM [1] was 96%. For the same molecule, the remaining activity at 1 µM (MST1(h)) was 84%, the remaining activity at 1 µM (DCAMKL3(h)) was 95% and the remaining activity at 1 µM (Rsk3(h)) was 86%. For the same molecule, the remaining activity at 1 µM [2] was 104%, the remaining activity at 1 µM (MELK(h)) was 56% and the remaining activity at 1 µM (CDKL1(h)) was 75%. It also gave a remaining activity at 1 µM (DYRK1B(h)) of 72%, a remaining activity at 1 µM (MSK1(h)) of 97% and a remaining activity at 1 µM (DYRK2(h)) of 89%. For the same molecule, the remaining activity at 1 µM (JNK2α2(h)) was 85%, the remaining activity at 1 µM (NDR2(h)) was 100% and the remaining activity at 1 µM (RIPK2(h)) was 45%. For the same molecule, the remaining activity at 1 µM (Abl (Q252H) (h)) was 94%, the remaining activity at 1 µM (CK1ε(h)) was 116% and the remaining activity at 1 µM (SLK(h)) was 106%. The remaining activity at 1 µM (PKCζ(h)) was 80%, the remaining activity at 1 µM (Fes(h)) was 85% and the remaining activity at 1 µM (GRK2(h)) was 81%. It also gave a remaining activity at 1 µM (p70S6K(h)) of 108%, a remaining activity at 1 µM (B-Raf(h)) of 80% and an inhibition at 1 µM (Lyn(h); LYN, read-out: inhibitory activity) greater than 70%. The remaining activity at 1 µM (Lyn(h); read-out: % Residual Activity) was 23%, the remaining activity at 1 µM (VRK1(h)) was 80% and the remaining activity at 1 µM (PDK1(h)) was 85%. It also gave a remaining activity at 1 µM (STK25(h)) of 95%, a remaining activity at 1 µM (MARK1(h)) of 82% and a remaining activity at 1 µM (PKCμ(h)) of 98%. It also gave a remaining activity at 1 µM (TTBK2(h)) of 88%, a remaining activity at 1 µM (DMPK(h)) of 100% and a remaining activity at 1 µM (ChaK1(h)) of 94%.
